According to patent publication US7625713B2, “Process for identifying a ligand that binds to the NEP binding site for the SMR1 pentapeptide” (Institut Pasteur, priority 2000, dated 2009):
Where a SMILES comes first, the peptide text is derived from it.

Experiments:
NEP [1] = molecular target: T1, NEP (Rattus norvegicus, UniProt P07861); assay: 3H-Substance P hydrolysis by rat spinal cord slices; format: biochemical; details: 10 μM combined with GEMSA (10 μM) and DPPIV inhibitor (10 μM), 25° C., read-out: inhibition of Substance P degradation
T1 construct: incubations of membrane and fresh tissue slice preparations from nervous tissues; from tissue; host or cells: dorsal spinal cord of male Wistar rats (fresh slices or 100 000 x g membrane fraction)
T1 sequence (P07861 1-750): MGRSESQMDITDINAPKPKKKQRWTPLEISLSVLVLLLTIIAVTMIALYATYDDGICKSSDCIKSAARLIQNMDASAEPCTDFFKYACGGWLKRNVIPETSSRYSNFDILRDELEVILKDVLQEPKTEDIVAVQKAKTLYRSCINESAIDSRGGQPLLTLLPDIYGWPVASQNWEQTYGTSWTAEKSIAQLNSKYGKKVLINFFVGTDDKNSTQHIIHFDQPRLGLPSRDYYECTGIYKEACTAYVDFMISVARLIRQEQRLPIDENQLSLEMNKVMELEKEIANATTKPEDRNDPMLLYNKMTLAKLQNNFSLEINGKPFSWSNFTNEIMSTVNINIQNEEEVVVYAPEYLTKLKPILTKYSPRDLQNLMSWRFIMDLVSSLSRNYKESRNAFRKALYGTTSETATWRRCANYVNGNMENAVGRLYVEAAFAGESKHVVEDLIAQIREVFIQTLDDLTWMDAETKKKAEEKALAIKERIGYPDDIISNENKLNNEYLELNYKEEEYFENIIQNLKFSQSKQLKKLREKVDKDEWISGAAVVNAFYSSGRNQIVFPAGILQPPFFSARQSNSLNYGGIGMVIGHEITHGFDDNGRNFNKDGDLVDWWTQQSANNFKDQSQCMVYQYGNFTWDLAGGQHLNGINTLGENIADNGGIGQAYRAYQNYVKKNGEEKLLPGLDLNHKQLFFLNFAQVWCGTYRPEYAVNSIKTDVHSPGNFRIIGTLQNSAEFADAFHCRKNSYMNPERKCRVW
Method: For the experiments of analysis of the NEP peptidase activity, an ex vivo model using incubations of membrane and fresh tissue slice preparations from nervous tissues that are known to be appropriate for exploring NEP peptidase activity: i.e. the dorsal zone of rat spinal cord, was first developed. […] (NEN, 12.5-25 nM) were used.
The objective was to measure the NEP-specific endoproteolysis of these substrates.

NEP [2] = molecular target: T1, NEP; assay: Met-enkephalin hydrolysis by rat spinal cord slices and membrane preparations, RP-HPLC analysis; format: biochemical; details: 10 μM combined with the inhibitors of CPB and DPPIV (10 μM), spinal cord slices, 20 min at 25° C.
Method: FIG. 2-B: […] Retention time) recovered after 20 min. incubation at 25° C. with 1 mg fresh tissue slices in a 1 ml final volume of KRBG buffer. The organs are rapidly removed, dissected on ice, freed of nerve fibers and of adipose tissues and then washed in cold oxygenated glucose- and bicarbonate-containing Krebs Ringer (KRBG) solution, whose composition is the following: 120 mM NaCl-5 mM KCl-1.2 mM KH2PO4-27.5 mM NaHCO3-2.6 mM CaCl2-0.67 mM MgSO4-5.9 mM glucose. The slices of tissues are prepared either manually with the aid of a scalpel (1-2 mm thick), or mechanically with the aid of a “Tissue Chopper” (1 mm thick). Slices are then dispersed into reaction tubes where they are subjected to three successive washes in ice-cold oxygenated KRBG. […] The organs dissected out and washed in ice-cold KRBG are homogenized at 4° C. in 10 volumes (vol./wt.) of 50 mM Tris/HCl buffered at pH 7.2, using a Teflon-glass homogenizer (3×5 sec.). […] The metabolism rate of the NEP-sensitive peptides was measured using the both NEP substrates involved in the signaling of the nociceptive response: the neuropeptides Met-enkephalin and Substance P. […] Their identification and relative quantification (peak height) are checked by continuously monitoring the UV absorbance at 254 nm of column outflow. […]

inhibition at 10 µM (NEP [1]): > 90% | inhibition of Met-enkephalinase activity (Met-enkephalin degradation) (NEP [2]): 80%
SMILES: N=C(N)NCCC[C@H](NC(=O)[C@@H]1CCCN1C(=O)[C@H](CC(N)=O)NC(=O)[C@H](Cc1c[nH]cn1)NC(=O)[C@@H](N)CCC(N)=O)C(=O)O [sialorphin, Gln-His-Asn-Pro-Arg] (H-QHNPR-OH; N-terminus and C-terminus assumed)
